Earlier results, collected in patent publication US20210198629A1, “COMPOSITIONS AND METHODS FOR INCREASING BEIGING OF WHITE ADIPOSE TISSUE” (University of Georgia Research Foundation, Inc., priority 2018, published 2021).
Where two headings read alike, the source gives them in different places.

Columns and labels:
[1] = tested on: Ucp1; settings: cited from earlier work
[2] = tested on: EGFR mutant PC9 cancer cells; settings: cited from earlier work
[3] = biological target: T1, BRD9 (Homo sapiens, UniProt Q9H8M2); settings: cited from earlier work
T1 sequence (Q9H8M2 1-597): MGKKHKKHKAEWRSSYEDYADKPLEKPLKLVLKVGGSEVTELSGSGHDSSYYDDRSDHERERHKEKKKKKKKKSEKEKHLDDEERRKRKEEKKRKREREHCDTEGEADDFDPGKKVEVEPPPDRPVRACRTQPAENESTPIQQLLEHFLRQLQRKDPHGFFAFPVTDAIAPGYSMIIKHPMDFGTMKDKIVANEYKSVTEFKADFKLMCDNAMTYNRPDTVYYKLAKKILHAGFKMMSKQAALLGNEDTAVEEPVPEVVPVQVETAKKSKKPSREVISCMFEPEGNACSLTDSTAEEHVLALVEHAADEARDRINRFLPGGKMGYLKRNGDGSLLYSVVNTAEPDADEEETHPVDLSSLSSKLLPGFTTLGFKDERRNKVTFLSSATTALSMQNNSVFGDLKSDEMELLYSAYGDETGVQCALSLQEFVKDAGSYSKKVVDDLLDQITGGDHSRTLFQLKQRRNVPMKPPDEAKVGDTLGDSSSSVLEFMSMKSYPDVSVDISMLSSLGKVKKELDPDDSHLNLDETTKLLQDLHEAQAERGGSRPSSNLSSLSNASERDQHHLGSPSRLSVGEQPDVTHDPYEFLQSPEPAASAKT

[4] = tested on: rhabdoid tumor cells; settings: combinatorial treatment with cytostatic compounds (e.g., cisplatin); cited from earlier work

C=C(c1ccc(C(=O)O)cc1)c1cc2c(cc1C)C(C)(C)CCC2(C)C [Bexarotene]
WAT beiging, increase of Ucp1 ([1]; oral administration 50 mg/kg/d, for 28 days, only in subcutaneous WATs): 1.5 fold

C/C=C/Cn1cc(-c2cc(OC)c(C(=O)N3CCOCC3)cc2OC)c2cc[nH]c2c1=O [GNE-375]
drug resistance development ([2]; EGFR mutant PC9 cancer cells): prevent the drug resistance development | cell viability ([2]; PC9 study): little effects | expression of ALDH1A1 ([2]; PC9 study): decreases | global gene expression ([2]; PC9 study): little effects

COc1ccc(Br)cc1/C=C1\SC(=O)N(Cc2ccc(C)cc2)C1=O [GQ-16]
WAT beiging, increase of Ucp1 ([1]; oral administration 40 mg/kg/d, for 14 days): 5 fold

CCn1cc(-c2cccc(C(F)(F)F)c2)c2sc(C(=N)NC3CCS(=O)(=O)CC3)cc2c1=O [I-BRD9, N′-(1,1-dioxothian-4-yl)-5-ethyl-4-oxo-7-[3-(trifluoromethyl)phenyl]thieno[3,2-c]pyridine-2-carboximidamide]
selectivity over the BET family ([3]; BRD9 vs BET family): > 700 fold | selectivity over the highly homologous BRD7 ([3]; BRD9 vs BRD7): 200 fold | proliferation of rhabdoid tumor cells [4]: synergistically inhibit

CC[C@H](CO)Nc1nc(NCc2ccccc2)c2ncn(C(C)C)c2n1 [Roscovitine]
WAT beiging ([1]; intraperitoneal injection 50 mg/kg/d for 42 days): induced WAT beiging

CCc1cc2c(c(CC)n1)CCC(=O)N2Cc1ccc(-c2ccccc2-c2nn[nH]n2)cc1 [ZD7155]
WAT beiging, increase of Ucp1 ([1]; intraperitoneal injection 1 mg/kg/d for 14 days): less than 2 fold
